Experimental data: paper PMC5770468, “Cardiac glycoside/aglycones inhibit HIV-1 gene expression by a mechanism requiring MEK1/2-ERK1/2 signaling” (Scientific Reports, 2018)

Assays:
HIV-1 Tat (p16/p14) = experiment: Immunoblot of HIV-1 Tat (p16/p14) in HeLa rtTA-HIV-ΔMls cells; assay type: cell-based; settings: ~IC80 of CS, relative to DMSO (+Dox)
Description: Figure 3 CSs reduce expression of essential HIV-1 structural and regulatory proteins. HeLa rtTA-HIV-ΔMls cells were treated with ~IC80s of CSs (per Methods), 100 nM of RIDK-21 or -27, or DMSO for 4 h prior to Dox induction for 20 h as indicated. Cell extracts were analyzed by immunoblot of (a) HIV-1 structural proteins: Env (gp160/gp120) and Gag (p41/p24), and (b–d) viral regulatory factors: Rev (p19, b) and Tat (p16/p14, c,d). (d) Graph quantitating Tat expression. Results from (a–d) are from n ≥ 3, mean, s.e.m. […] (a and d) Lanes were cropped and assembled from the same blot per box from Supplementary Figure S4a,b and c, respectively.
To monitor HIV-1 gene expression or replication, Gag release into cell culture supernatants were assayed by ELISA using a p24^CA antigen capture assay kit (AIDS & Cancer Virus Program, NCI-Frederick, Frederick, MD USA). […] For analysis of HIV-1 and SR protein expression (and phosphorylation states with calf intestinal alkaline phosphatase treatments), cells were lysed and analyzed by western blot as previously outlined. […] Activation of MAPKs was determined by western blot quantitation and calculation of phospho/total protein levels. […] Stain-Free™ gels were casted and proteins were detected as described in 10% TGX-Stain-Free FastCast Acrylamide Kit from Bio-Rad (#161-0183). […]

[1] = tested on: host alternative RNA splicing; parameters: method as in PMID 22456266; settings: of 8,175 analyzed, cited from earlier work

Compound	p16 Tat expression (HIV-1 Tat (p16/p14))	host splicing events affected ([1]; q-value = 0, sepscore ≥ 1.0)	host splicing events affected, share of analyzed [1]
C[C@]12CC[C@H](O)C[C@H]1CC[C@@H]1[C@@H]2CC[C@]2(C)[C@@H](C3=CC(=O)OC3)CC[C@]12O [Digitoxigenin]	57 % of control	–	–
C[C@H]1O[C@@H](O[C@H]2[C@@H](O)C[C@H](O[C@H]3[C@@H](O)C[C@H](O[C@H]4CC[C@@]5(C)[C@H](CC[C@@H]6[C@@H]5CC[C@]5(C)[C@@H](C7=CC(=O)OC7)CC[C@]65O)C4)O[C@@H]3C)O[C@@H]2C)C[C@H](O)[C@@H]1O [Digitoxin]	–	1681 events	~ 20.6%
